# System: human cytomegalovirus (HCMV)
# Assay: Antiviral activity against HCMV in vitro (virus yield / replication assay, IE protein readout)
# Type: cell-based
# Details: Human betaherpesvirus 5, 96 h, read-out: HCMV IC50
# Description: Assessing Antiviral Activity Against Human Cytomegalovirus (HCMV)
# To assess their antiviral activity, some compounds were tested against human cytomegalovirus (HCMV) in vitro. Human MRCS cells were grown in Dulbecco's Modified Eagle Medium (DMEM) supplemented with 10% fetal bovine serum (FBS) and infected with an HCMV variant expressing GFP tagged pUL99 (the product of late viral UL99 gene) at a multiplicity of 1 infectious unit (IU) per cell. One hour later, medium of the cells was replaced with fresh medium containing the indicated compounds at 50, 25, 12.5, 6.25, 3.13, 1.56, 0.78, 0.39 μM or the carrier in which the compounds are dissolved (DMSO). Final concentration of DMSO was 0.5% in each treatment. Virus yield in the culture supernatant was determined at 96 hours after infection by infecting fresh MRCS cells and assaying viral IE1 protein expression. Results were plotted using either Prism Software or CDD Vault (CDD Vault was developed by Collaborative Drug Discovery, Inc., 1633 Bayshore Hwy, Suite 342, Burlingame, Calif. 94010) in order to calculate IC50s.
# Alternatively, antiviral efficacy of some compounds was assessed by inhibition of HCMV replication during in vitro replication assays. Briefly, confluent monolayers of MRCS fibroblasts in a 96 well plate format (˜1.0×10^4 cells/well) were infected with an AD169 strain of HCMV for one hour. After the initial incubation hour, virus containing media was removed and 100 ul of media with sequential dilutions of FORGE compounds added to each well. The concentrations of the FORGE compounds were 50 μM, 25 μM, 12.5 μM, 6.25 μM, 3.125 μM, 1.56 μM, and 0.78125 μM as well as a vehicle control (0.5% DMSO). The concentration of DMSO was constant between all conditions. Assays were performed in duplicate. Infected plates were returned to the incubator and the viral infection was allowed to progress for four days. On the fourth day, 50 μL of cell free supernatant was collected from each well and used to infect a new 96 well plate seeded with a confluent monolayer of MRCS fibroblasts along with 50 μL of media to bring the total volume to 100 μL. The next day the media was removed and the infected monolayer was fixed with cold methanol, and Immediate Early proteins were detected by immunofluorescence assays to quantify the number of cells that were infected with HCMV. IE gene expression was quantified within five random fields within each well and corresponding numbers were utilized to determine viral replication. Results from each well were normalized to the vehicle control well so as to allow a percent reduction from no drug treatment to be calculated. Results were plotted using either Prism Software or CDD Vault in order to calculate IC50s.
row,Compound,IC50 [µM]
1,c1ccc2c(c1)CCN(c1ncc(Cc3ccc(-n4cccn4)cc3)s1)C2 [Example 16],12.5
2,CC(c1ccccc1)c1cnc(N2CCc3ccccc3C2)s1 (centres unmarked) [Example 7],> 50
3,CC(c1cccc(-n2cccn2)c1)c1cnc(N2CCc3ccc(C(N)=O)cc3C2)s1 (centres unmarked) [Example SBX088],1.6
4,COC(c1cccc(-n2cccn2)c1)c1cnc(N2CCc3ccc(C(N)=O)cc3C2)s1 (centres unmarked) [Example SBX087],1.4
5,CC(Nc1ncc(Cc2cccc(-n3cccn3)c2)s1)c1ccccc1 (centres unmarked) [Example 34],> 50
6,CC(C)OC1CN(c2ncc(Cc3ccc(-n4cccn4)cc3)s2)C1 [Example 22],> 50
7,c1ccc2c(c1)CCN(c1ncc(Cc3ccc4nccnc4c3)s1)C2 [Example 4],5.6
8,c1cc(Cc2cnc(N3CCC4OCCCC4C3)s2)cc(-n2cccn2)c1 (centres unmarked) [Example 33],11.5
9,CC(c1ccc(-c2ncccn2)cc1)c1cnc(N2CCc3ccccc3C2)s1 (centres unmarked) [Example 17],4.2
10,O=C(c1ccc2nccnc2c1)c1cnc(N2CCc3ccccc3C2)s1 [Example 5],> 50
11,c1cc(Cc2cnc(N3CCCc4ccccc43)s2)cc(-n2cccn2)c1 [Example 31],> 50
12,CC(c1cccc(-n2cccn2)c1)c1cnc(N2CCc3ccccc3C2)s1 (centres unmarked) [Example 18],1.6
13,CC(O)(c1ccc2nccnc2c1)c1cnc(-c2cnc(Cl)s2)s1 (centres unmarked) [Example 1],21.4
14,c1cnn(-c2ccc(Cc3cnc(N4CCOCC4)s3)cc2)c1 [Example 27],10.3
15,CC(c1cccc(-n2cccn2)c1)c1cnc(N2CCc3ccc(Br)cc3C2)s1 (centres unmarked) [Example SBX084],3.8
16,CC(c1ccc2nccnc2c1)c1cnc(N2CCC(c3ccccc3)C2)s1 (centres unmarked) [Example 10],> 25
17,CC(O)(c1ccc2nccnc2c1)c1cnc(N2CCc3ccccc3C2)s1 (centres unmarked) [Example 2],24
18,CC(Nc1ncc(Cc2ccc(-n3cccn3)cc2)s1)c1ccccc1 (centres unmarked) [Example 26],> 50
19,CC(C)c1ccc(CNc2ncc(Cc3cccc(-n4cccn4)c3)s2)cc1 [Example 32],> 50
20,C=C(c1ccc2nccnc2c1)c1cnc(N2CCc3ccccc3C2)s1 [Example 3],> 50
21,CC(c1cnc(N2CCc3ccccc3C2)s1)c1c[nH]c2ccccc12 (centres unmarked) [Example 9],12.7

row,Compound,IC50 [µM]
1,C=C(c1ccc(-n2cccn2)cc1)c1cnc(N2CCc3ccccc3C2)s1 [Example 14],28.7
2,C=C(c1cccc(-n2cccn2)c1)c1cnc(N2CCc3ccccc3C2)s1 [Example 19],7
3,CC(c1cccnc1)c1cnc(N2CCc3ccccc3C2)s1 (centres unmarked) [Example 8],16.4
4,N#Cc1ccc2c(c1)CN(c1ncc(Cc3cccc(-n4cccn4)c3)s1)CC2 [Example 36],3.3
5,c1ccc(CNc2ncc(Cc3ccc(-n4cccn4)cc3)s2)cc1 [Example 21],> 50
6,OC(c1ccc2nccnc2c1)c1cnc(N2CCc3ccccc3C2)s1 (centres unmarked) [Example 6],5.1
7,C=C(c1ccc2nccnc2c1)c1cnc(NCc2ccccc2)s1 [Example 12],> 50
8,CC(c1ccc(N2CCCCC2)cc1)c1cnc(N2CCc3ccccc3C2)s1 (centres unmarked) [Example 15],> 25
9,CC(c1cccc(-n2ccnc2)c1)c1cnc(N2CCc3ccc(C#N)cc3C2)s1 (centres unmarked) [Example SBX080],4.9
10,c1ccc(CNc2ncc(Cc3cccc(-n4cccn4)c3)s2)cc1 [Example 29],> 50
11,CC(c1cccc(-n2cccn2)c1)c1cnc(N2CCc3ccc(C#N)cc3C2)s1 (centres unmarked) [Example SBX082],7.3
12,c1cnn(-c2ccc(Cc3cnc(N4CCC5OCCCC5C4)s3)cc2)c1 (centres unmarked) [Example 25],11
13,N#Cc1ccc2c(c1)CN(c1ncc(Cc3ccc(-n4cccn4)cc3)s1)CC2 [Example 28],9.7
14,c1cc(Cc2cnc(N3CCOCC3)s2)cc(-n2cccn2)c1 [Example 35],> 27
15,c1cc(Cc2cnc(N3CCc4ccccc4C3)s2)cc(-n2cccn2)c1 [Example 20],8.9
16,CC(c1ccc2nccnc2c1)c1cnc(N2CCC(Cc3ccccc3)CC2)s1 (centres unmarked) [Example 11],> 25
17,CC(C)OC1CN(c2ncc(Cc3cccc(-n4cccn4)c3)s2)C1 [Example 30],12
18,CC(c1ccc(-n2cccn2)cc1)c1cnc(N2CCc3ccccc3C2)s1 (centres unmarked) [Example 13],3.6
19,c1ccc2c(c1)CCCN2c1ncc(Cc2ccc(-n3cccn3)cc2)s1 [Example 23],> 50
20,CC(C)c1ccc(CNc2ncc(Cc3ccc(-n4cccn4)cc3)s2)cc1 [Example 24],> 50

# — patent US11358961B2, “Anti-HCMV compositions and methods” (Evrys Bio, LLC, priority 2014, dated 2022)
